Results on 23 molecules are retold here after PubChem BioAssay AID192 (DTP/NCI, 2004).

“And” between values parts separate entries of the source, which are not always exact repeats. Equal entries are not always repeated. Inconclusive results and toxic doses are left out. Numbered stars: 1 amine (or outer) side, 2 acyl side, 3 side chain; on linkers, the order of the positions; unused ones are H or OH. Bridge positions count the residues as written; N and C are the ends. Square brackets hold non-standard residues; d marks the D form. Peptide text beside a SMILES is read from it. I, II: the chains in the order shown. Actinocin(1to9) = Cc1c2oc3c(C)ccc(C(=O)[*:2])c3nc-2c(C(=O)[*:1])c(N)c1=O; NMeV = CN[CH](C(=O)O)C(C)C; Sar = CNCC(=O)O

This test relates to BDF1 mice, B16 melanoma ip, median survival T/C. Briefly: NCI In Vivo Anticancer Drug Screen. Data for tumor model B16 Melanoma (intraperitoneal) in B6D2F1 (BDF1) mice. The conditions noted are these: endpoint: median survival time, higher = longer survival. The essentials:
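Transplantable tumor model; survival or tumor size measured; reported as T/C, treated over vehicle control.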

[1] abbreviates: dose: 25.0 mg/kg/injection, schedule: Q01DX009 (ip), vehicle: saline with Tween-80.
Setting [2] is: dose: 50.0 mg/kg/injection, schedule: Q01DX009 (ip), vehicle: saline with Tween-80.
The mark [3] stands for this setting: dose: 100.0 mg/kg/injection, schedule: Q01DX009 (ip), vehicle: saline with Tween-80.
Setting [4] is: dose: 200.0 mg/kg/injection, schedule: Q01DX009 (ip), vehicle: saline with Tween-80.
Where [5] appears, read: dose: 400.0 mg/kg/injection, schedule: Q01DX009 (ip), vehicle: saline with Tween-80.
[6] abbreviates: dose: 100.0 mg/kg/injection, schedule: Q01DX009 (ip), vehicle: Klucel (hydroxypropylcellulose) (HPC).
Where [7] appears, read: dose: 200.0 mg/kg/injection, schedule: Q01DX009 (ip), vehicle: Klucel (hydroxypropylcellulose) (HPC).
Setting [8] is: dose: 400.0 mg/kg/injection, schedule: Q01DX009 (ip), vehicle: Klucel (hydroxypropylcellulose) (HPC).
Where [9] appears, read: dose: 50.0 mg/kg/injection, schedule: Q04DX003 (ip), vehicle: Klucel (hydroxypropylcellulose) (HPC).
Setting [10] is: dose: 100.0 mg/kg/injection, schedule: Q04DX003 (ip), vehicle: Klucel (hydroxypropylcellulose) (HPC).
Where [11] appears, read: dose: 6.25 mg/kg/injection, schedule: Q01DX009 (ip), vehicle: saline.
[12] abbreviates: dose: 12.5 mg/kg/injection, schedule: Q01DX009 (ip), vehicle: saline.
[13] abbreviates: dose: 25.0 mg/kg/injection, schedule: Q01DX009 (ip), vehicle: Klucel (hydroxypropylcellulose) (HPC).
Setting [14] is: dose: 50.0 mg/kg/injection, schedule: Q01DX009 (ip), vehicle: Klucel (hydroxypropylcellulose) (HPC).
Setting [15] is: dose: 50.0 mg/kg/injection, schedule: Q01DX009 (ip), vehicle: saline.
Where [16] appears, read: dose: 12.5 mg/kg/injection, schedule: Q01DX009 (ip), vehicle: saline with Tween-80.

For the molecule `CCC1(O)CC2CN(CCc3c([nH]c4ccccc34)C(C(=O)OC)(c3cc4c(cc3OC)N(C)C3C(O)(C(=O)NCCO)C(O)C5(CC)C=CCN6CCC43C65)C2)C1` (stereo unspecified), the T/C is 164 % of control (dose: 0.2 mg/kg/injection, schedule: Q01DX009 (ip), vehicle: saline); 121 % of control (dose: 0.22 mg/kg/injection, schedule: Q01DX009 (ip), vehicle: water); 162 % of control (dose: 0.36 mg/kg/injection, schedule: Q01DX009 (ip), vehicle: water); 191 % of control (dose: 0.4 mg/kg/injection, schedule: Q01DX009 (ip), vehicle: saline); 161 % of control (dose: 0.6 mg/kg/injection, schedule: Q01DX009 (ip), vehicle: water); 218 % of control (dose: 0.8 mg/kg/injection, schedule: Q01DX009 (ip), vehicle: saline). For the same molecule, the T/C was 155 % of control (dose: 1.0 mg/kg/injection, schedule: Q04DX003 (ip), vehicle: saline); 121 % of control (dose: 1.04 mg/kg/injection, schedule: Q01DX001 (ip), vehicle: water); 155 % of control and 179 % of control (dose: 1.44 mg/kg/injection, schedule: Q04DX003 (ip), vehicle: water); 161 % of control (dose: 1.67 mg/kg/injection, schedule: Q04DX003 (ip), vehicle: saline); 155 % of control and 206 % of control (dose: 2.4 mg/kg/injection, schedule: Q04DX003 (ip), vehicle: water); 122 % of control (dose: 2.9 mg/kg/injection, schedule: Q01DX001 (ip), vehicle: water). The T/C is, setting by setting: (dose: 4.0 mg/kg/injection, schedule: Q04DX003 (ip), vehicle: water) 87 % of control; (dose: 648.0 micrograms/kg/injection, schedule: Q04DX003 (ip), vehicle: saline) 163 % of control; (dose: 1080.0 micrograms/kg/injection, schedule: Q04DX003 (ip), vehicle: saline) 167 % of control; (dose: 1800.0 micrograms/kg/injection, schedule: Q04DX003 (ip), vehicle: saline) 156 % of control and 182 % of control; (dose: 3000.0 micrograms/kg/injection, schedule: Q04DX003 (ip), vehicle: saline) 166 % of control and 179 % of control.

As to `Nc1ccc(S(N)(=O)=O)cc1`, the T/C is, setting by setting: under setting [1], 97 % of control and 99 % of control; under setting [2], 94 % of control and 102 % of control; under setting [3], 91 % of control and 100 % of control; under setting [4], 96 % of control and 102 % of control; under setting [5], 99 % of control and 105 % of control.

For `O=C1c2ccc(Br)cc2-c2cc(Br)ccc21`, the T/C was 87 % of control under setting [1] and 93 % of control under setting [3].

`O=[N+]([O-])c1ccc2c(c1)sc1cc([N+](=O)[O-])c(Br)cc12`: the T/C by setting is: under setting [2], 102 % of control; under setting [3], 102 % of control; under setting [4], 100 % of control; under setting [5], 90 % of control.

Consider `O=S(=O)(Nc1ccc(F)cc1)c1ccccc1`, for which the T/C was 96 % of control under setting [6], 99 % of control under setting [7] and 97 % of control under setting [8].

As to `O=CNc1cc2ccccc2c2ccc3ccccc3c12`, the T/C was 104 % of control under setting [9] and 100 % of control under setting [10].

With `CCC(C)C1NC(=O)C(NC(=O)c2c3nc4c(C(=O)NC5C(=O)NC(C(C)C)C(=O)N6CCCC6C(=O)N(C)CC(=O)N(C)C(C(C)C)C(=O)OC5C)ccc(C)c4oc-3c(C)c(=O)c2N)C(C)OC(=O)C(C(C)C)N(C)C(=O)CN(C)C(=O)C2CCCN2C1=O` (stereo unspecified) (I: TIP[Sar][NMeV] / II: TVP[Sar][NMeV]; ester I:1-I:C, II:1-II:C; linker I:N-II:N via Actinocin(1to9); configuration not given here), the T/C by setting is: (dose: 0.2 mg/kg/injection, schedule: Q01DX001 (ip), vehicle: water) 116 % of control; (dose: 12.5 micrograms/kg/injection, schedule: Q01DX009 (ip), vehicle: water) 117 % of control; (dose: 25.0 micrograms/kg/injection, schedule: Q01DX009 (ip), vehicle: water) 116 % of control; (dose: 75.0 micrograms/kg/injection, schedule: Q04DX003 (ip), vehicle: water) 119 % of control.

For `C=CCNCCN1CCN(CCCN2c3ccccc3Sc3ccc(C(F)(F)F)cc32)CC1`, the T/C was 105 % of control under setting [11]; 100 % of control (dose: 9.37 mg/kg/injection, schedule: Q04DX003 (ip), vehicle: saline); 110 % of control under setting [12]; 97 % of control (dose: 18.75 mg/kg/injection, schedule: Q04DX003 (ip), vehicle: saline); 91 % of control (dose: 55.0 mg/kg/injection, schedule: Q04DX003 (ip), vehicle: saline).

In the case of `Cc1cc(=O)c2c(o1)-c1c(cc(O)c(O)c1C(=O)O)OC2`, the T/C (dose: 12.5 mg/kg/injection, schedule: Q01DX009 (ip), vehicle: Klucel (hydroxypropylcellulose) (HPC)) was 101 % of control; the T/C under setting [13] is 105 % of control; the T/C under setting [14] is 105 % of control; the T/C under setting [6] is 102 % of control; the T/C under setting [7] is 106 % of control.

Turning to `CCOc1ccnc(OCC)n1`, the T/C runs as follows: under setting [1], 96 % of control; under setting [2], 101 % of control; under setting [3], 99 % of control.

As to `Cc1cccc(-c2nc3cc(Cl)ccc3c(=O)o2)c1`, the T/C by setting is: under setting [13], 100 % of control; (dose: 25.0 mg/kg/injection, schedule: Q04DX003 (ip), vehicle: Klucel (hydroxypropylcellulose) (HPC)) 103 % of control; under setting [14], 107 % of control; under setting [9], 103 % of control; under setting [6], 100 % of control; under setting [10], 106 % of control.

`CN(Cc1ccccc1)/N=N/c1nc[nH]c1C(N)=O`: the T/C is 111 % of control under setting [1], 111 % of control under setting [2], 111 % of control under setting [3] and 110 % of control under setting [4].

For `CC(=O)OC1CCC(C2CCCCC2)CC1` (stereo unspecified), the T/C is, setting by setting: under setting [3], 111 % of control; under setting [4], 118 % of control.

In the case of `CC(=O)N(C)C(C(=O)N1CC(C)CC1C(=O)N(C)C1C(=O)NC(CC(C)C)C(=O)N2CC(C)CC2C(=O)NC(CC(C)C)C(=O)N(C)C(C(C)C)C(=O)N2CCCC2C(=O)N(C)C(CC(C)C)C(=O)NCC(=O)OC1C)C(C)C` (stereo unspecified), the T/C was 94 % of control (dose: 18.75 mg/kg/injection, schedule: Q01DX009 (ip), vehicle: Klucel (hydroxypropylcellulose) (HPC)); 97 % of control (dose: 37.5 mg/kg/injection, schedule: Q01DX009 (ip), vehicle: Klucel (hydroxypropylcellulose) (HPC)); 94 % of control (dose: 75.0 mg/kg/injection, schedule: Q01DX009 (ip), vehicle: Klucel (hydroxypropylcellulose) (HPC)).

`Nc1c(Cl)cc(C(=O)NC2CC2)cc1Cl`: the T/C was 92 % of control under setting [11]; 102 % of control under setting [12]; 113 % of control (dose: 25.0 mg/kg/injection, schedule: Q01DX009 (ip), vehicle: saline); 97 % of control under setting [15].

For `OC1CC2CC1C1C=CCC21` (stereo unspecified), the T/C was 95 % of control under setting [2], 95 % of control under setting [3] and 90 % of control under setting [4].

For the molecule `CCc1ccccc1NC(=O)Nc1ccc(OC)cc1`, the T/C by setting is: under setting [13], 95 % of control; under setting [14], 87 % of control.

`Nc1ccccc1O`: the T/C under setting [15] was 93 % of control and 99 % of control; the T/C (dose: 100.0 mg/kg/injection, schedule: Q01DX009 (ip), vehicle: saline) was 101 % of control and 93 % of control; the T/C (dose: 200.0 mg/kg/injection, schedule: Q01DX009 (ip), vehicle: saline) is 91 % of control and 94 % of control.

Consider `CCCC(=O)OCC1OC(n2cnc3c(=S)nc[nH]c32)C(OC(=O)CCC)C1OC(=O)CCC` (stereo unspecified), for which the T/C by setting is: under setting [1], 105 % of control; under setting [2], 90 % of control.

For the molecule `Cc1cccc(C)c1NS(=O)(=O)c1ccc(Cl)cc1`, the T/C under setting [13] is 99 % of control; the T/C under setting [14] was 97 % of control; the T/C under setting [6] was 99 % of control and 104 % of control; the T/C under setting [8] is 116 % of control.

`Cn1c2c(c3ccccc3c1=O)C(=O)c1ccccc1-2`: the T/C by setting is: under setting [1], 97 % of control; under setting [2], 89 % of control.

Regarding `O=C(O)C(c1ccccc1)C1CCCC1` (stereo unspecified), the T/C under setting [16] is 109 % of control; the T/C under setting [1] was 111 % of control; the T/C under setting [2] was 94 % of control and 106 % of control.

Consider `O=[N+]([O-])c1ccc(Cl)c2c([N+](=O)[O-])cccc12`, for which the T/C was 100 % of control under setting [16]; 91 % of control under setting [1]; 93 % of control and 94 % of control under setting [2].
